31 compounds from patent US9834514B2, “Antibiotic sensitivity-restoring and photosensitive agents” (New Mexico Tech Research Foundation, priority 2015, dated 2017) can be followed below.

≈ marks a conversion by molar mass, not a printed value. Like-named read-outs stand apart in the source and are kept apart here. Marks after values point to notes of the source that are not given here.

For test [1], the system named is MRSA. In words: Minimum bactericidal concentration (MBC) with and without white light. Conditions: Staphylococcus aureus, light or radiation study. The test is classed as cell-based, S. aureus. On the procedure:
The bacterial media was inoculated with bacteria and incubated overnight. The bacterial cultures were diluted to 5×10^8 CFU/mL using a McFarland latex turbidity standard (0.5). Compound 1 was diluted with sterile DMSO, which was added to the cell suspension in glass culture tubes. The cells were then incubated for 30 minutes at 37° C. on a rotary shaking incubator at 150 rpm. 500 μL of the treated cell suspension was added to a well on a sterile ceramic drop plate. Non-coherent white light from a Lumacare™ LC-122 unit was used to irradiate the samples. The end of the light probe was placed 3 cm above the sample well, perpendicular to the surface of the sample, and light was applied for 2 minutes (15 seconds light, 15 seconds dark). 200 μL of the irradiated sample was transferred to a 96-well plastic microtiter plate and five ten-fold dilutions were made in the media. 10 μL of each dilution was dripped onto an agar media plate and was allowed to streak down the plate by tilting the plate down. The agar plates were incubated at 37° C. overnight and colony counts were performed to calculate the CFU/mL.
TABLE 14 details the MBC values of compounds 1-6 against MRSA with and without irradiation with white light. Irradiation involved treatment with a LumaCare™ light source at 3 cm from media for 1 min.

The subject of test [2] is HeLa cells. In words: Toxicity (IC50) on HeLa cells. Type of test: cell-based, human. As to conditions: cancerous cervical epithelium HeLa cells; for IC50: Homo sapiens. On the procedure: The toxicities of the compounds of the invention were determined for human cancerous cervical epithelium HeLa and normal lung fibroblast WI38 cells. The toxicities of EPIs INF-55 and INF-55Cl were quantified as controls. […] TABLE 2 compares the toxicity of compounds 7-11 on HeLa cells and normal WI38 cells.

Test [3] deals with S. aureus (ATCC 29213). In words: MIC against drug sensitive S. aureus. The test is classed as cell-based. Conditions: Staphylococcus aureus, ATCC29213; ATCC 29213; read-out: S. aureus MIC.
For test [4], the system named is VRE. Briefly: MIC against VRE. Type of test: cell-based, Enterococcus faecalis. The method, then:
In a 12×75 mm borosilicate glass culture tube, 1 mL of cell suspension was added. Then, compound 7 was added to the cells, and the samples were mixed using a vortex mixer. […] The samples were incubated overnight at 37° C. on a rotary shaking incubator at 100 rpm.

The nature of test [5]: MIC against MRSA isolates. The test is classed as cell-based, S. aureus. As to conditions: Staphylococcus aureus. The method, then: (§1) The MICs of S. aureus ATCC 33591, BAA-44, BAA-1707, BAA-1717, BAA-1720, BAA-1747, BAA-1754, BAA-1761, BAA-1763, BAA-1764, and BAA-1766 were measured using a cell concentration of about 5×10^5 colony forming units (CFU)/mL. In a 96-well microtiter plate, two-fold dilutions were made of each drug (starting with 100 μM) in 100 μL of a cell suspension in trypticase soy broth (TSB). The samples were incubated overnight at 37° C. on a rotary shaking incubator set at 100 revolutions per minute (rpm) and were visually inspected for turbidity. A 20% well-volume of 3-(4,5-dimethylthiazol-2-yl)-2,5-diphenyltetrazolium bromide (MTT reagent, 5 mg/mL) was added, and the samples were incubated for about 20 minutes. The MICs were determined as the lowest concentration at which full visual inhibition was observed by the unaided eye.

Test [6] relates to MRSA isolates (S. aureus ATCC 33591, BAA-44, BAA-1707, BAA-1717, BAA-1720, BAA-1747, BAA-1754, BAA-1761, BAA-1763, BAA-1764, BAA-1766). Briefly: MIC against MRSA isolates. The test is classed as cell-based. The method, then:
as §1

Setting [7] is: 1 min, LumaCare light source at 3 cm from media for 1 min, read-out: MBC with irradiation.
The mark [8] stands for this setting: no irradiation, read-out: MBC in the dark.
Setting [9] is: Enterococcus, TABLE 23, read-out: VRE MIC.
The mark [10] stands for this setting: MRSA (ATCC BAA-44), TABLE 21, read-out: MRSA MIC.
[11] abbreviates: antibiotics, MRSA isolate ATCC BAA-44.
The mark [12] stands for this setting: antibiotics, MRSA isolate ATCC BAA-1717.
Setting [13] is: Enterococcus, common antibiotics, TABLE 24, read-out: MIC.

As for `C(=C\c1[nH]c2ccccc2c1/C=C/c1ccccc1)/c1ccccc1` [Compound 2], the values for the MBC in test [1] (setting [7]) and in test [1] (setting [8]) were 0.5 µM (≈ 0.161 µg/mL) and 100 µM (≈ 32.1 µg/mL), respectively.
For `COc1ccc(/C=C/c2[nH]c3ccccc3c2/C=C/c2ccc(OC)cc2)cc1` [Compound 3], the MBC in test [1] (setting [7]) amounted to 0.5 µM (≈ 0.191 µg/mL); in test [1] (setting [8]), 200 µM (≈ 76.3 µg/mL).
In the case of `Clc1ccccc1/C=C/c1[nH]c2ccccc2c1/C=C/c1ccccc1Cl` [Compound 5], the MBC amounted to 0.5 µM (≈ 0.195 µg/mL) in test [1] (setting [7]) and 200 µM (≈ 78.1 µg/mL) in test [1] (setting [8]).
On the same counts, the results for `Clc1cccc(/C=C/c2[nH]c3ccccc3c2/C=C/c2cccc(Cl)c2)c1` [Compound 6] are 1 µM (≈ 0.39 µg/mL) and 200 µM (≈ 78.1 µg/mL).
`Clc1ccc(-c2cc3[nH]c4ccccc4c3cc2-c2ccc(Cl)cc2)cc1` [Compound 13] returned an IC50 in test [2] of 16.4 ± 1.1 µM.
Same read-out and setting: in the case of `Clc1ccc(Sc2c(-c3ccc(Br)cc3)[nH]c3ccccc23)cc1` [Compound 14] it was 12.2 ± 1.6 µM.
As for `Clc1ccc(-c2cc3ccccc3[nH]2)cc1` [Compound 15], the “IC50 HeLa” value in test [2] is given as “Non-Toxic”.
`Clc1ccc(Sc2c(-c3ccc(Cl)cc3)[nH]c3ccccc23)cc1` [Compound 16] had an IC50 in test [2] of 6.4 ± 1 µM.
The same measure, in the same setting: in the case of `O=S(=O)(c1ccc(Cl)cc1)c1c(-c2ccc(Cl)cc2)[nH]c2ccccc12` [Compound 18] it was 14.3 ± 0.7 µM; in that of `O=C(c1ccc(Cl)cc1)c1c(-c2ccc(Cl)cc2)[nH]c2ccccc12` [Compound 19], 35.8 ± 6 µM.
On to `O=[N+]([O-])c1ccc2[nH]c(-c3ccc(Cl)cc3)cc2c1` [Compound 20], for which the “IC50 HeLa” value in test [2] was “Non-Toxic”.
In turn, `Clc1ccc(Sc2c(-c3ccc(Cl)cc3)[nH]c3ccc(Cl)cc23)cc1` [Compound 21] had a 50% inhibitory concentration (IC50) in test [2] of 8.2 ± 1 µM.
Same read-out and setting: in the case of `Clc1ccc(Oc2c(-c3ccc(Cl)cc3)[nH]c3ccc(Br)cc23)cc1` [Compound 22] it was 3.2 ± 0.4 µM; in that of `Fc1ccc2[nH]c(-c3ccc(Cl)cc3)c(Oc3ccc(Cl)cc3)c2c1` [Compound 23], 12.9 ± 3.2 µM; in that of `COc1ccc2[nH]c(-c3ccc(Cl)cc3)c(Oc3ccc(Cl)cc3)c2c1` [Compound 24], 23.9 ± 1.8 µM.
Still for that read-out and setting: in the case of `Fc1cccc2c(Oc3ccc(Cl)cc3)c(-c3ccc(Cl)cc3)[nH]c12` [Compound 25] it was 13 ± 3.5 µM.
In test [2], `CCOC(=O)c1ccc2[nH]c(-c3ccc(Cl)cc3)c(Oc3ccc(Cl)cc3)c2c1` [Compound 26] came in with an IC50 of 18.6 ± 1.1 µM.
Regarding `Clc1ccc(/N=N/c2c(-c3ccc(Br)cc3)[nH]c3ccccc23)cc1` [Compound 27], half-maximal inhibition in test [2] (IC50) was put at 12.5 ± 0.2 µM.
The compound `Brc1ccc(/N=N/c2c(-c3ccc(Br)cc3)[nH]c3ccccc23)cc1` [Compound 28] yielded an IC50 in test [2] of 8.6 ± 1.4 µM.
In turn, `Fc1ccc(/N=N/c2c(-c3ccc(F)cc3)[nH]c3ccccc23)cc1` [Compound 29] displayed an IC50 in test [2] of 11.6 ± 0.7 µM.
Turning to `COC(=O)n1c(Br)c(Br)c2ccccc21` [Compound 31], the “IC50 HeLa” value in test [2] was “Non-Toxic”.
On to `Cc1onc(-c2c(Cl)cccc2Cl)c1C(=O)N[C@@H]1C(=O)N2[C@@H]1SC(C)(C)[C@@H]2C(=O)O` [Dicloxicillin, reference compound], for which the MIC in test [3] is 50 to 100 µg/mL (≈ 106 to 213 µM); in test [4] (setting [9]), 4 µg/mL (≈ 8.5 µM).
`C[C@H]1c2cccc(O)c2C(=O)C2=C(O)[C@]3(O)C(=O)C(C(N)=O)=C(O)[C@@H](N(C)C)[C@@H]3[C@@H](O)[C@@H]21` [Doxycycline, reference compound]: the MIC was 3.12 µg/mL (≈ 7.02 µM) in test [3], 3.12 µg/mL (≈ 7.02 µM) in test [5] (setting [10]) and 0.25 to 0.5 µg/mL (≈ 0.563 to 1.13 µM) in test [4] (setting [9]).
With `CC[C@H]1OC(=O)[C@H](C)[C@@H](O[C@H]2C[C@@](C)(OC)[C@@H](O)[C@H](C)O2)[C@H](C)[C@@H](O[C@@H]2O[C@H](C)C[C@H](N(C)C)[C@H]2O)[C@](C)(O)C[C@@H](C)C(=O)[C@H](C)[C@@H](O)[C@]1(C)O` [Erythromycin, reference compound], the MIC is more than 1000 µg/mL in test [5] (setting [11]), 30 µg/mL (≈ 40.9 µM) in test [5] (setting [12]) and more than 32 µg/mL in test [4] (setting [13]). For the same compound, the S/R entry in test [4] (TABLE 24) was “R”.
With `O=[N+]([O-])c1ccc2[nH]c(-c3ccccc3)cc2c1` [INF-55, reference compound], in test [2], the “IC50 HeLa” value is given as “Non-Toxic”.
For the compound `CC1(C)S[C@@H]2[C@H](NC(=O)Cc3ccccc3)C(=O)N2[C@H]1C(=O)O` [Penicillin G], the S/R result in test [4] (TABLE 24) is on record as “S”. For the same compound, in test [4] (common antibiotics, TABLE 24), the MIC is 2 µg/mL (≈ 5.98 µM).
Regarding `CN(C)[C@@H]1C(O)=C(C(N)=O)C(=O)[C@@]2(O)C(O)=C3C(=O)c4c(O)cccc4[C@@](C)(O)[C@H]3C[C@@H]12` [Tetracycline], in test [4] (setting [13]), the MIC is less than 0.5 µg/mL. In addition, the S/R result in test [4] (TABLE 24) is listed as “S”.
For `NC[C@H]1O[C@H](O[C@H]2[C@H](O)[C@@H](O[C@H]3O[C@H](CO)[C@@H](O)[C@H](N)[C@H]3O)[C@H](N)C[C@@H]2N)[C@H](N)C[C@@H]1O` [Tobramycin, reference compound], the values for the MIC in test [3], in test [5] (setting [10]) and in test [4] (setting [9]) were 0.25 µg/mL (≈ 0.535 µM), more than 5000 µg/mL and more than 200 µg/mL, respectively.
As for Gentamycin [reference compound], the MIC in test [6] (antibiotics, MRSA isolate ATCC 33591) is >100* μg/mL; in test [6] (setting [11]), >200* μg/mL; in test [6] (antibiotics, MRSA isolate ATCC BAA-1707), less than 3.1 µg/mL; in test [6] (setting [12]), 3.1 µg/mL; in test [6] (antibiotics, MRSA isolate ATCC BAA-1720) it was less than 3.1 µg/mL; in test [6] (antibiotics, MRSA isolate ATCC BAA-1747), 6.3 µg/mL. The MIC in test [6] (antibiotics, MRSA isolate ATCC BAA-1754) is less than 3.1 µg/mL; in test [6] (antibiotics, MRSA isolate ATCC BAA-1761), less than 3.1 µg/mL; in test [6] (antibiotics, MRSA isolate ATCC BAA-1763), 3 to 6 µg/mL; in test [6] (antibiotics, MRSA isolate ATCC BAA-1764), less than 3.1 µg/mL; in test [6] (antibiotics, MRSA isolate ATCC BAA-1766), 12.5* μg/mL.
Turning to INF-55Cl [reference compound], the “IC50 HeLa” value in test [2] is listed as “Non-Toxic”.
Penicillin [reference compound]: the minimum inhibitory concentration (MIC) is reported as 1.6* mg/mL in test [6] (Penicillin, MRSA isolate ATCC BAA-44) and 1* mg/mL in test [6] (Penicillin, MRSA isolate ATCC BAA-1717).
